The source made the active and inactive calls. No cut-off for these calls is given here.

One may read the IC50 as the point on the concentration scale where inhibition reaches its midpoint.

Data set [1] has as its system RAW264.7. Briefly: Cytotoxicity against mouse RAW264.7 cells derived macrophage assessed as reduction in cell viability upto 40 uM incubated for 24 hrs by CCK-8 assay. Type of data set: toxicity, cell-based. As to conditions: raw264.7, 24 h. (Formazan colour is commonly taken as a measure of viable cells.)
Another data set deals with J774.1. Briefly: Cytotoxicity against mouse J774.1 cells derived macrophage assessed as reduction in cell viability upto 40 uM incubated for 24 hrs by CCK-8 assay. Type of data set: toxicity, cell-based. Particulars: j774.1, 24 h.
Data set [2] deals with THP-1. Briefly: Cytotoxicity against human THP-1 cells derived macrophage assessed as reduction in cell viability upto 40 uM incubated for 24 hrs by CCK-8 assay. Type of data set: toxicity, cell-based. Particulars: thp-1, 24 h.
Data set [3] deals with RAW264.7. Briefly: Antiinflammatory activity in mouse RAW264.7 assessed as inhibition of LPS-induced NO production incubated for 1 hrs followed by LPS stimulation for 18 hrs by Griess reagent based assay. Type of data set: functional, cell-based.
For data set [4], the system named is THP-1. Briefly: Antiinflammatory activity against PMA-differentiated human THP-1 cells assessed as reduction in IL-1beta level at 20 uM incubated for 1 hrs followed by LPS stimulation for 12 hrs and ATP addition for 0.5 hrs by ELISA. As to conditions: time 13.5 hrs. Type of data set: functional, cell-based. In general terms: ELISA stands for enzyme-linked immunosorbent assay.

As for `CC(=O)O[C@@H]1C[C@H]2C(C)(C)C(=O)C=C[C@]2(C)[C@H]2CC[C@@]3(C)[C@@H](c4ccoc4)OC(=O)[C@H]4O[C@]43[C@@]21C`, the Activity entry with RAW264.7 [1], in the data set with J774.1 and with THP-1 [2] was “Toxic” each time. The 50% inhibitory concentration (IC50) with RAW264.7 [3] was 8.85 µM. Moreover, the outcome with THP-1 [4] was Active.
As for `CC1(C)C(=O)C=C[C@]2(C)[C@H]3CC[C@@]4(C)[C@H](c5ccoc5)OC(=O)[C@H]5O[C@]54[C@]3(C)C(=O)C[C@@H]12` [DEACETOXY-7-OXOGEDUNIN], the Activity entry in the data set with RAW264.7 [1] and with THP-1 [2] was “Toxic” each time. In addition, the IC50 in the data set on RAW264.7 [3] was 9.46 µM. Moreover, the outcome with THP-1 [4] was Active.
As for `CNC(=N)NCCC[C@H](N)C(=O)O` [TILARGININE], the 50% inhibitory concentration (IC50) with RAW264.7 [3] was determined as 44.4 µM.

The record behind these values is ChEMBL document CHEMBL5120822, “Inhibition of the P2X7/NLRP3 Inflammasome Signaling Pathway by Deacetylgedunin from Toona sinensis” (J Nat Prod, 2022).
